As a reminder, the Kd is the concentration at which binding is half-saturated.

Calls of active or inactive are those of the source. No cut-off for these calls is given here.

Assay [1] has as its system Bacteria. The assay is described as follows: Binding affinity to His-tagged LptC (unknown origin) extracted from Escherichia coli BL21 (DE3) cells by BLI analysis.
The subject of a further assay is Cell membrane. Description: Induction of outer membrane damage in Escherichia coli ATCC 25922 assessed as loose outer membrane with decrease in electron cloud density at 12.5 microg/ml incubated for 1 hrs by TEM analysis. The note with it: dose 12.5 µg/ml.
Assay [2] relates to Escherichia coli. The assay is described as follows: Antibacterial activity against Escherichia coli ATCC 25922 infected in Galleria mellonella larvae assessed as survival rate of larvae at 50 microg/ml relative to control. Format: functional.
Assay [3] deals with Escherichia coli. Description: Synergistic antibacterial activity against Escherichia coli ATCC 25922 infected in Galleria mellonella larvae assessed as survival rate of larvae at 50 microg/ml in presence of polymyxin B relative to control. Format: functional.
The subject of assay [4] is Acinetobacter baumannii. Description: Antibacterial activity against Acinetobacter baumannii ATCC 19606 infected in Galleria mellonella larvae assessed as survival rate of larvae at 50 microg/ml measured after 96 hrs relative to control. Format: functional.
Assay [5] deals with Acinetobacter baumannii. Description: Synergistic antibacterial activity against Acinetobacter baumannii ATCC 19606 infected in Galleria mellonella larvae assessed as survival rate of larvae at 50 microg/ml measured after 96 hrs in presence of polymyxin B relative to control. Format: functional.
For assay [6], the system named is Lipopolysaccharide (LPS). Description: Binding affinity to LPS (unknown origin) by BLI analysis. The note with it: dose 3.13-25 µg/ml.
The target in assay [7] is Lipopolysaccharide (LPS). Description: Binding affinity to LPS (unknown origin) assessed as dissociation constant by BLI analysis.
The test system of assay [8] is Lipopolysaccharide (LPS). Description: Binding affinity to LPS (unknown origin) assessed as exothermic heat release at 100 mM by ITC analysis. The following applies: time <= 40.0 min. Background: ITC needs no label: the signal is the heat of the interaction.
The subject of assay [9] is Bacteria. The assay is described as follows: Inhibition of His-tagged His-tagged LptA/LptC (unknown origin) protein-protein interaction extracted from Escherichia coli BL21 (DE3) cells by BLI analysis. The note with it: dose 0.39-1.56 µg/ml.

As to `CN1CCOc2cc(/C=C/c3cc(C(C)(C)C)[o+]c(C(C)(C)C)c3)ccc21.O=S(=O)([O-])C(F)(F)F`, the result in the assay on Bacteria [1] was inactive.
Regarding `CC(C)(C)c1cc(/C=C/c2ccc(N3CCCC3)cc2)cc(C(C)(C)C)[o+]1.O=S(=O)([O-])C(F)(F)F`, the outcome in the assay with Cell membrane was Active.
Regarding `CCN(CC)c1ccc(/C=C/c2cc(C(C)(C)C)[o+]c(C(C)(C)C)c2)cc1.O=S(=O)([O-])C(F)(F)F`, the survival at 50 µg/mL with Escherichia coli [2] is 20%; in the assay on Escherichia coli [3], 70%; in the assay on Acinetobacter baumannii [4] it was 10%; in the assay on Acinetobacter baumannii [5], 80%. Moreover, in the assay on Cell membrane, the outcome was Active. For the same molecule, the Activity result in the assay with Lipopolysaccharide (LPS) [6] is “Dose-dependent-effect”; with Lipopolysaccharide (LPS) [8] it was “Time-dependent-effect”. Also, at Lipopolysaccharide (LPS) [7], the Kd was 4 µM. Also, in the assay on Bacteria [9], the inhibition entry is “Dose-dependent-effect”.

The record behind these values is ChEMBL document CHEMBL6109078, “Pyrylium derivatives as outer membrane permeabilizers against MDR gram-negative bacteria via multi-target mode of action” (Eur J Med Chem, 2025).
